Holding throughout (assay type): cell-based
Test [1] concerns Streptococcus faecalis L 80. The experiment in a line: MIC, agar serial dilution test. To be noted: Enterococcus faecalis, L80.
Test [2] relates to Pasteurella multocida A 723. The experiment in a line: MIC, agar serial dilution test. To be noted: A723.
Test [3] has as its system Pseudomonas aeruginosa A 1058. The experiment in a line: MIC, agar serial dilution test. To be noted: A1058.
Test [4] deals with Salmonella typhimurium R 172. The experiment in a line: MIC, agar serial dilution test. To be noted: Salmonella enterica.
Test [5] has as its system Diplococcus pneumoniae L 54. In words: MIC, agar serial dilution test. To be noted: Streptococcus pneumoniae, L54.
The next test concerns Proteus rettgeri A 821. The experiment in a line: MIC, agar serial dilution test. To be noted: Providencia rettgeri, A821.
Another test relates to Proteus mirabilis L 93. The experiment in a line: MIC, agar serial dilution test. To be noted: L93.
In test [6] the test system is Haemophilus suis A 2096. The experiment in a line: MIC, micro serial dilution test. To be noted: A2096, micro serial dilution test (brackets).
Test [7] relates to Klebsiella pneumoniae A 809. In words: MIC, agar serial dilution test. To be noted: A809.
Test [8] has as its system Streptococcus haemolyticus A 1088. The experiment in a line: MIC, agar serial dilution test. To be noted: A1088.
The subject of test [9] is Pseudomonas aeruginosa H 10. In words: MIC, agar serial dilution test. To be noted: H10.
Another test has as its system Proteus mirabilis A 1200. In words: MIC, agar serial dilution test. To be noted: A1200.
The next test deals with Proteus mirabilis H 3. In words: MIC, agar serial dilution test. To be noted: H3.
Test [10] has as its system Pseudomonas aeruginosa 2396. The experiment in a line: MIC, agar serial dilution test.
Test [11] deals with Haemophilus suis A 2096. The experiment in a line: MIC, agar serial dilution test. To be noted: A2096.

MIC data for 2 compounds are collected here from patent US4067986A, “Novel penicillanic acid” (Gist-Brocades N.V., priority 1974, dated 1978).

In brackets after ≈: the same amount, converted by molar mass. Bounds are passed on as bounds.

`CC1(C)S[C@@H]2[C@H](NC(=O)C(C(=O)O)c3ccccc3)C(=O)N2[C@H]1C(=O)O` (stereo partly drawn) [carbenicillin]: the MIC was 25 µg/mL (≈ 66.1 µM) in [1]; 0.2 µg/mL (≈ 0.529 µM) in test [2]; 37 µg/mL (≈ 97.8 µM) in test [3]; 6 µg/mL (≈ 15.9 µM) in test [4]; 0.75 µg/mL (≈ 1.98 µM) in test [5]; 0.3 µg/mL (≈ 0.793 µM) in the test with Proteus rettgeri A 821. In addition, the MIC is 0.5 µg/mL (≈ 1.32 µM) in the test with Proteus mirabilis L 93, 0.2 µg/mL (≈ 0.529 µM) against Haemophilus suis A 2096 [6], greater than 100 µg/mL in test [7] and 0.1 µg/mL (≈ 0.264 µM) in test [8].

For the compound `CC1(C)S[C@@H]2[C@H](NC(=O)[C@H](N)c3ccccc3)C(=O)N2[C@H]1C(=O)O` [ampicillin], the MIC in test [9] is greater than 100 µg/mL; in the test with Proteus mirabilis A 1200 it was 3 µg/mL (≈ 8.59 µM); against Proteus mirabilis H 3, 3 µg/mL (≈ 8.59 µM); in test [3], 50 µg/mL (≈ 143 µM); in test [4], 3 µg/mL (≈ 8.59 µM); in [10], 50 µg/mL (≈ 143 µM). Besides, the MIC in test [5] is 0.05 µg/mL (≈ 0.143 µM); with Proteus rettgeri A 821, 3 µg/mL (≈ 8.59 µM); in the test on Proteus mirabilis L 93, 3 µg/mL (≈ 8.59 µM); in the test on Haemophilus suis A 2096 [11] it was 0.15 µg/mL (≈ 0.429 µM); in test [8], 0.75 µg/mL (≈ 2.15 µM).
